By EC50 is commonly meant the midpoint of the concentration-response curve.

This passage reports EC50 results from patent publication US11524940B1, “Inhibitors of cysteine proteases and methods of use thereof” (priority 2020, dated 2022).

Molecules are shown by their SMILES.

The target in this assay is 229E Mpro (Human coronavirus 229E (HCoV-229E), UniProt P0C6X1). The assay is described as follows: 229E Mpro activity. The note with it: read-out: 229E Mpro EC50. Format: biochemical.
Chain of 229E Mpro (P0C6X1 2966-3267 limits assumed): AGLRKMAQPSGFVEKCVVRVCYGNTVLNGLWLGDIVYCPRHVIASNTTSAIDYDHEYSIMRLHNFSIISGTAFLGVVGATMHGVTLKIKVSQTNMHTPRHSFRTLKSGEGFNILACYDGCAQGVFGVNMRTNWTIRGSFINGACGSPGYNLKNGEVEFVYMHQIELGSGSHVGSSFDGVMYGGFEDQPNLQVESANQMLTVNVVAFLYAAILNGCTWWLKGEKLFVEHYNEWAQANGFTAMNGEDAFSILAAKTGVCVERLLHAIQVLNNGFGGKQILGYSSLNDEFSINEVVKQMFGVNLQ

Method: Compounds are assayed using standard methods to assess compound activity and IC50. […] The assay buffer contains 20 mM of Tris-HCl (pH 7.3), 100 mM of NaCl, 1 mM of EDTA, 5mM of TCEP and 0.1% BSA.

In the case of `COc1cccc2[nH]c(C(=O)N[C@@H](CC(C)C)C(=O)N[C@@H](C[C@@H]3CCNC3=O)C3OC(=O)N(C(C)C)C3=N)cc12` (stereo partly drawn) [Compound 357, N-((2S)-1-(((1S)-1-(4-imino-3-isopropyl-2-oxooxazolidin-5-yl)-2-((S)-2-oxopyrrolidin-3-yl)ethyl)amino)-4-methyl-1-oxopentan-2-yl)-4-methoxy-1H-indole-2-carboxamide], the EC50 is over 30 µM.
Turning to `COc1cccc2[nH]c(C(=O)N[C@@H](CC(C)C)C(=O)N[C@@H](C[C@@H]3CCNC3=O)C3OC(=O)N(c4ccccc4)C3=N)cc12` (stereo partly drawn) [Compound 359, N-[(1S)-1-[[(1S)-1-(4-imino-2-oxo-3-phenyl-oxazolidin-5-yl)-2-[(3S)-2-oxopyrrolidin-3-yl]ethyl]carbamoyl]-3-methyl-butyl]-4-methoxy-1H-indole-2-carboxamide], the EC50 was 10 to 30 µM.
As for `COc1cccc2[nH]c(C(=O)N3CC4(CCOCC4)C[C@H]3C(=O)N[C@H](C#N)C[C@@H]3CCNC3=O)cc12` [Compound 387, N-((S)-1-cyano-2-((S)-2-oxopyrrolidin-3-yl)ethyl)-2-(4-methoxy-1H-indole-2-carbonyl)-8-oxa-2-azaspiro[4.5]decane-3-carboxamide], the EC50 is over 30 µM.
`CC[C@H]1CN(C(=O)c2cc3c(OC)cccc3[nH]2)[C@@H]1C(=O)N[C@H](C#N)C[C@@H]1CCNC1=O` [Compound 391, (2S,3S)-N-((S)-1-cyano-2-((S)-2-oxopyrrolidin-3-yl)ethyl)-3-ethyl-1-(4-methoxy-1H-indole-2-carbonyl)azetidine-2-carboxamide]: the EC50 was over 30 µM.
In the case of `COc1cccc2[nH]c(C(=O)N3C[C@H](OC)C[C@H]3C(=O)N[C@H](C#N)C[C@@H]3CCNC3=O)cc12` [Compound 407], the EC50 is under 2 µM.
The result for `CCO[C@@H]1C[C@@H](C(=O)N[C@H](C#N)C[C@@H]2CCNC2=O)N(C(=O)c2cc3c(OC)cccc3[nH]2)C1` [Compound 409, (2S,4R)-N-[(1S)-1-cyano-2-[(3S)-2-oxopyrrolidin-3-yl]ethyl]-4-ethoxy-1-(4-methoxy-1H-indole-2-carbonyl)pyrrolidine-2-carboxamide] reads over 30 µM.
Take `N#C[C@H](C[C@@H]1CCNC1=O)NC(=O)[C@@H]1CS[C@H]2CC[C@H](NC(=O)OCc3ccccc3)C(=O)N21` [Compound 457, Benzyl((3R,6S,8aS)-3-(((S)-1-cyano-2-((S)-2-oxopyrrolidin-3-yl)ethyl)carbamoyl)-5-oxohexahydro-2H-thiazolo[3,2-a]pyridin-6-yl)carbamate]: the EC50 is over 30 µM.
For `Cc1cc(C(=O)N[C@H]2CC[C@@H]3SC[C@@H](C(=O)N[C@H](C#N)C[C@@H]4CCNC4=O)N3C2=O)no1` [Compound 459, N-((3R,6S,8aS)-3-(((S)-1-cyano-2-((S)-2-oxopyrrolidin-3-yl)ethyl)carbamoyl)-5-oxohexahydro-2H-thiazolo[3,2-a]pyridin-6-yl)-5-methylisoxazole-3-carboxamide], the EC50 is over 30 µM.
To `N#C[C@H](C[C@@H]1CCNC1=O)NC(=O)[C@H](CC1CC1)N1CCC2(CCCN2)C1=O` (stereo partly drawn) [Compound 471, N-[(1S)-1-cyano-2-[(3S)-2-oxopyrrolidin-3-yl]ethyl]-3-cyclopropyl-2-(6-oxo-1,7-diazaspiro[4.4]nonan-7-yl)propanamide] belongs 10 to 30 µM.
Regarding `N#C[C@H](C[C@@H]1CCNC1=O)NC(=O)[C@@H]1CS[C@H]2CC[C@H](N)C(=O)N21` [Compound 479, (3R,6S)-6-amino-N-[(1S)-1-cyano-2-[(3S)-2-oxopyrrolidin-3-yl]ethyl]-5-oxo-2,3,6,7,8,8a-hexahydrothiazolo[3,2-a]pyridine-3-carboxamide], the EC50 lay in the range of 10 to 30 µM.
For the compound `N#C[C@H](C[C@@H]1CCNC1=O)NC(=O)[C@@H]1CCc2ccc(NCC(=O)Oc3ccccc3)c(=O)n21` [Compound 483, phenyl 2-[[(3S)-3-[[(1S)-1-cyano-2-[(3S)-2-oxopyrrolidin-3-yl]ethyl]carbamoyl]-5-oxo-2,3-dihydro-1H-indolizin-6-yl]amino]acetate], the EC50 was over 30 µM.
To `COc1cccc2[nH]c(C(=O)N[C@@H](CC3CC3)C(=O)N[C@@H](C#N)C[C@@H]3CCCNC3=O)cc12` [Compound 491B] belongs 10 to 30 µM; to `COc1cccc2[nH]c(C(=O)N[C@H](C(=O)N[C@H](C#N)C[C@@H]3CCNC3=O)C3CC4CC4C3)cc12` (stereo partly drawn) [Compound 499], under 2 µM.
As for `N#C[C@H](C[C@@H]1CCNC1=O)NC(=O)[C@H](CC1CC1)NC(=O)c1cc2c(OCCN3CCOCC3)cccc2[nH]1` [Compound 515, N-[(1S)-2-[[(1S)-1-cyano-2-[(3S)-2-oxopyrrolidin-3-yl]ethyl]amino]-1-(cyclopropylmethyl)-2-oxo-ethyl]-4-(2-morpholinoethoxy)-1H-indole-2-carboxamide], the EC50 was under 2 µM.
Regarding `N#C[C@H](C[C@@H]1CCNC1=O)NC(=O)[C@H](CC1CC1)NC(=O)c1nc2c(Cl)cc(Cl)cc2[nH]1` [Compound 525, 4,6-dichloro-N-[(1S)-2-[[(1S)-1-cyano-2-[(3S)-2-oxopyrrolidin-3-yl]ethyl]amino]-1-(cyclopropylmethyl)-2-oxo-ethyl]-1H-benzimidazole-2-carboxamide], the EC50 was under 2 µM.
Take `N#C[C@H](C[C@@H]1CCNC1=O)NC(=O)[C@H](CC1CC1)NC(=O)c1cc2ccc(Cl)cc2[nH]1` [Compound 529, 6-chloro-N-[(1S)-2-[[(1S)-1-cyano-2-[(3S)-2-oxopyrrolidin-3-yl]ethyl]amino]-1-(cyclopropylmethyl)-2-oxo-ethyl]-1H-indole-2-carboxamide]: the EC50 was under 2 µM.
To `CCO[C@@H]1C[C@@H](C(=O)N[C@H](C#N)C[C@@H]2CCNC2=O)N(C(=O)c2cc3c(OC)cccc3[nH]2)C1` [Compound 535] belongs over 30 µM; to `COc1cccc2[nH]c(C(=O)N3C[C@H](C(F)(F)F)C[C@H]3C(=O)N[C@H](C#N)C[C@@H]3CCNC3=O)cc12` [Compound 549, (2S,4R)-N-[(1S)-1-cyano-2-[(3S)-2-oxopyrrolidin-3-yl]ethyl]-1-(4-methoxy-1H-indole-2-carbonyl)-4-(trifluoromethyl)pyrrolidine-2-carboxamide], under 2 µM; to `COc1cccc2[nH]c(C(=O)N3C[C@H](SC)C[C@H]3C(=O)N[C@H](C#N)C[C@@H]3CCNC3=O)cc12` [Compound 551, (2S,4R)-N-[(1S)-1-cyano-2-[(3S)-2-oxopyrrolidin-3-yl]ethyl]-1-(4-methoxy-1H-indole-2-carbonyl)-4-methylsulfanyl-pyrrolidine-2-carboxamide], under 2 µM.
Take `CCCNC(=O)OC(C#N)[C@H](C[C@@H]1CCNC1=O)NC(=O)[C@H](CC(C)C)NC(=O)c1cc2c(OC)cccc2[nH]1` (stereo partly drawn) [Compound 581]: the EC50 is over 30 µM.
Consider `COc1cccc2[nH]c(C(=O)N[C@@H](CC(C)C)C(=O)N[C@@H](C[C@@H]3CCNC3=O)C(C#N)OC(=O)NC(C)C)cc12` (stereo partly drawn) [Compound 583], for which the EC50 was over 30 µM.
With `COc1cccc2[nH]c(C(=O)N3C[C@H](c4ccccc4)C[C@H]3C(=O)N[C@H](C#N)C[C@@H]3CCCNC3=O)cc12` [Compound 611, (2S,4S)-N-[(1S)-1-cyano-2-[(3S)-2-oxo-3-piperidyl]ethyl]-1-(4-methoxy-1H-indole-2-carbonyl)-4-phenyl-pyrrolidine-2-carboxamide], the EC50 was under 2 µM.
Consider `COc1ccc2[nH]c(C(=O)N[C@@H](CC3CC3)C(=O)N[C@H](C#N)C[C@@H]3CCCNC3=O)cc2c1` [Compound 619, N-[(1S)-2-[[(1S)-1-cyano-2-[(3S)-2-oxo-3-piperidyl]ethyl]amino]-1-(cyclopropylmethyl)-2-oxo-ethyl]-5-methoxy-1H-indole-2-carboxamide], for which the EC50 was under 2 µM.
As to `COc1ccc2[nH]c(C(=O)N[C@@H](CC3CC3)C(=O)N[C@H](C#N)C[C@@H]3CCCNC3=O)cc2n1` [Compound 621, N-[(1S)-2-[[(1S)-1-cyano-2-[(3S)-2-oxo-3-piperidyl]ethyl]amino]-1-(cyclopropylmethyl)-2-oxo-ethyl]-5-methoxy-1H-pyrrolo[3,2-b]pyridine-2-carboxamide], the EC50 is under 2 µM.
For `COc1nccc2[nH]c(C(=O)N[C@@H](CC3CC3)C(=O)N[C@H](C#N)C[C@@H]3CCCNC3=O)cc12` [Compound 623, N-[(1S)-2-[[(1S)-1-cyano-2-[(3S)-2-oxo-3-piperidyl]ethyl]amino]-1-(cyclopropylmethyl)-2-oxo-ethyl]-4-methoxy-1H-pyrrolo[3,2-c]pyridine-2-carboxamide], the concentration for a half-maximal effect (EC50) was over 30 µM.
Take `N#C[C@H](C[C@@H]1CCCNC1=O)NC(=O)[C@H](CC1CC1)NC(=O)c1cc2cnccc2[nH]1` [Compound 625, N-((S)-1-(((S)-1-cyano-2-((S)-2-oxopiperidin-3-yl)ethyl)amino)-3-cyclopropyl-1-oxopropan-2-yl)-1H-pyrrolo[3,2-c]pyridine-2-carboxamide]: the EC50 is under 2 µM.
To `N#C[C@H](C[C@@H]1CCCNC1=O)NC(=O)[C@H](CC1CC1)NC(=O)c1cc2cc(Cl)ccc2[nH]1` [Compound 633, 5-chloro-N-[(1S)-2-[[(1S)-1-cyano-2-[(3S)-2-oxo-3-piperidyl]ethyl]amino]-1-(cyclopropylmethyl)-2-oxo-ethyl]-1H-indole-2-carboxamide] belongs under 2 µM; to `N#C[C@H](C[C@@H]1CCCNC1=O)NC(=O)[C@@H](CC1CC1)NC(=O)c1cc2cccc(Cl)c2[nH]1` [Compound 639A, 7-Chloro-N-[(1R)-2-[[(1S)-1-cyano-2-[(3S)-2-oxo-3-piperidyl]ethyl]amino]-1-(cyclopropylmethyl)-2-oxo-ethyl]-1H-indole-2-carboxamide], under 2 µM.
As for `N#C[C@H](C[C@@H]1CCNC1=O)NC(=O)[C@H](CC1CC1)NC(=O)c1cc2c(Cl)cccc2[nH]1` [Compound 647, 4-chloro-N-[(1S)-2-[[(1S)-1-cyano-2-[(3S)-2-oxopyrrolidin-3-yl]ethyl]amino]-1-(cyclopropylmethyl)-2-oxo-ethyl]-1H-indole-2-carboxamide], the EC50 was under 2 µM.
`COc1cccc2[nH]c(C(=O)N3C[C@H](C(C)(C)C)C[C@H]3C(=O)N[C@H](C#N)C[C@@H]3CCNC3=O)cc12` [Compound 655, (2S,4S)-4-(tert-butyl)-N-((S)-1-cyano-2-((S)-2-oxopyrrolidin-3-yl)ethyl)-1-(4-methoxy-1H-indole-2-carbonyl)pyrrolidine-2-carboxamide]: the EC50 was 10 to 30 µM.
